Test results published in US9394555B2, “Compositions comprising a polypeptide having cellulolytic enhancing activity and a dioxy compound and uses thereof” (priority 2010, dated 2016).

B1: T. aurantiacus GH61A polypeptide: GH61A polypeptide having cellulolytic enhancing activity (SEQ ID NO: 14), recombinantly produced in Aspergillus oryzae JaL250 (protein, listed as Thermoascus aurantiacus)
chain: MSFSKIIATAGVLASASLVAGHGFVQNIVIDGKYYGGYLVNQYPYMSNPPEVIAWSTTATDLGFVDGTGYQTPDIICHRGAKPGALTAPVSPGGTVELQWTPWPDSHHGPVINYLAPCNGDCSTVDKTQLEFFKIAESGLINDDNPPGIWASDNLIAANNSWTVTIPTTIAPGNYVLRHEIIALHSAQNQDGAQNYPQCINLQVTGGGSDNPAGTLGTALYHDTDPGILINIYQKLSSYIIPGPPLYTG

Experiments:
[1] = target: T1, T. aurantiacus GH61A polypeptide (Thermoascus aurantiacus, UniProt G3XAP7, N13Y); experiment: Microcrystalline cellulose conversion assay II (Examples 10, 11), T. reesei CEL7A cellobiohydrolase I + A. oryzae CEL3A beta-glucosidase; type: biochemical; conditions: 72 hours, 50° C.
Description: A 5% microcrystalline cellulose slurry was prepared by addition of 2.5 g of AVICEL® PH101 to a graduated 50 ml screw-cap conical tube followed by approximately 40 ml of deionized water. Each conical tube was then mixed thoroughly by shaking/vortexing, and adjusted to 50 ml total with deionized water and mixed again. For samples containing dioxy compounds, a similar slurry was prepared by the addition of 100 mg of solid dioxy compound and 2.5 g of AVICEL® PH101 to a graduated 50 ml screw-cap conical tube followed by approximately 40 ml of deionized water. Each conical tube was then mixed thoroughly by shaking/vortexing, and adjusted to 50 ml total with deionized water and mixed again.
The dioxy compounds assayed include caffeic acid, dichlorophenolindophenol (DCPIP), ethyl gallate, gallic acid, 3,4-dihydroxybenzoic acid, pyrocatechol, pyrogallol, sinapinic acid (3,5 dimethoxy-4-hydroxy cinnamic acid), and tannic acid.
In all cases, the contents of the tube (5% microcrystalline cellulose slurry with or without 0.2% dioxy compound) were then quickly transferred to a 100 ml beaker and stirred rapidly with a magnetic stirrer. Five hundred μl aliquots of the 5% AVICEL® slurry were pipetted into wells of a 2.0 ml 96-deepwell plate (Axygen, Union City, Calif.) using a 1000 μl micropipette with a wide aperture tip (end of tip cut off about 2 mm from the base). One hundred μl of deionized water and 300 μl of 3.33 mM MnSO4-500 mM sodium acetate pH 5 were then added to each well. Enzyme mixtures were prepared and then added simultaneously to all wells in a volume of 100 μl, for a total of 1 ml in each reaction. […] All experiments reported were performed in triplicate.
(§1) Primary analysis of the hydrolysis reactions was performed using an AGILENT® 1100 HPLC with CHEMSTATION® software equipped with an AMINEX™ HPX-87H column. After approximately 4 days, the deep-well plate was removed from the incubator and chilled overnight to 4° C. The plate was then mixed well by inversion and briefly centrifuged at 52×g in a SORVALL® RT7 centrifuge for 10 seconds. Samples were then mixed by pipetting, and 200 μl from each well were transferred to a MULTISCREEN® HV centrifuge filter plate assembly. The centrifuge filter plate assembly was centrifuged at 2000 rpm in a SORVALL® RT7 centrifuge for 20 minutes. […] Sugars were detected using a refractive index detector with quantification by integration compared to purified sugar standards.
(§2) All HPLC data processing was performed using MICROSOFT EXCEL™ software. […] In this assay only glucose was measured since beta-glucosidase was at high levels in all samples but the controls. The degree of cellulose conversion was calculated using Equation 1. Triplicate data points were averaged and standard deviation was calculated.
The microcrystalline cellulose hydrolysis assay was performed as described in Example 10.
Data were collected and analyzed, as described in Example 10, after 72 hours of incubation at 50° C.

[2] = target: T1, T. aurantiacus GH61A polypeptide; experiment: Microcrystalline cellulose conversion assay III (Examples 12, 13), T. reesei Cel7B endoglucanase I + A. oryzae CEL3A beta-glucosidase, with and without EDTA; type: biochemical; conditions: 72 hours, 50° C.
Description: A 5% microcrystalline cellulose slurry was prepared by addition of 2.5 g of AVICEL® PH101 to a graduated 50 ml screw-cap conical tube followed by approximately 40 ml of deionized water. Each conical tube was then mixed thoroughly by shaking/vortexing, and adjusted to 50 ml total with deionized water and mixed again. Contents of the tube were then quickly transferred to a 100 ml beaker and stirred rapidly with a magnetic stirrer. Five hundred μl aliquots of the 5% AVICEL® slurry were pipetted into wells of a 2.0 ml 96-deepwell plate (Axygen, Union City, Calif., USA) using a 1000 μl micropipette with a wide aperture tip (end of tip cut off about 2 mm from the base). Two hundred μl of deionized water and 100 μl of 10 mM MnSO4-500 mM sodium acetate pH 5 were then added to each well. One hundred μl of either deionized water, a 1% gallic acid solution dissolved in water, or a 1% gallic acid solution containing 50 mM EDTA was added to each well. Enzyme mixtures were prepared and then added simultaneously to all wells in a volume of 100 μl, for a total of 1 ml in each reaction. […] All experiments reported were performed in triplicate.
as §1, with “briefly centrifuged 52×g in” for “briefly centrifuged at 52×g in”
as §2
The microcrystalline cellulose hydrolysis assay was performed as described in Example 12.
Data were collected and analyzed, as described in Example 12, after 72 hours of incubation at 50° C.

Row | Molecule | conversion (hydrolysis) of the microcrystalline cellulose ([1]; dioxy compound 0.1% w/w alone, no enzymes) | conversion of the microcrystalline cellulose ([2]; gallic acid 0.1% w/w + 5 mM EDTA + T. aurantiacus GH61A polypeptide (5 mg/g), no other enzymes) | conversion of the microcrystalline cellulose ([2]; gallic acid 0.1% w/w + 5 mM EDTA, no enzymes) | conversion of the microcrystalline cellulose ([2]; gallic acid 0.1% w/w alone, no enzymes) | conversion of the microcrystalline cellulose ([1]; T. aurantiacus GH61A polypeptide (10 mg/g) + cellobiohydrolase I + beta-glucosidase (5 mg/g each), no dioxy compound) [%] | conversion of the microcrystalline cellulose ([2]; T. aurantiacus GH61A polypeptide (5 mg/g) + endoglucanase I + beta-glucosidase (5 mg/g each), no gallic acid) [%] | conversion of microcrystalline cellulose ([2]; T. aurantiacus GH61A polypeptide (5 mg/g) alone)
1 | O=C(O)c1cc(O)c(O)c(O)c1 [gallic acid] | no significant hydrolysis | no significant conversion | no significant conversion | no significant conversion | – | – | –
2 | B1 | – | – | – | – | 21.4±0.5 | 4.0±0.2 | no significant conversion
